Data: patent US20250152496A1, “SKIN IMPROVING AGENT CONTAINING FERMENTED EXTRACT AS MAIN RAW MATERIAL” (priority 2022, published 2025)

What was measured:
[1] = system: rat basophilic leukemia cell RBL-2H3; test: degranulation inhibition: β-hexosaminidase activity of antigen-stimulated RBL-2H3 cells; format: cell-based; details: 50 µg/mL, positive control
Protocol: To determine an extent to which the test object inhibits degranulation, degranulation is assessed by measuring the activity of β-hexosaminidase, which is abundantly present in the granulocyte. Accordingly, the effect of the test object on allergic reaction is evaluated. It is known that rat basophilic leukemia cell RBL-2H3 releases the granulocyte containing histamine and the like to the outside of the cell when IgE bound to the cell surface is cross-linked with an antigen. This has been applied as an experimental system to exploratory research and the like as screening for substances having an anti-allergic action against type I allergy. In this example, the inhibition of degranulation is evaluated by stimulating RBL-2H3 cells with an antigen and measuring the activity of β-hexosaminidase (FIG. 4). […] Further, […] of quercetin was used as a positive control. […] By adding […] of the rice malt lactic acid bacterium fermentation liquid SW01, the activity of β-hexosaminidase was about 50%. […] Note that, the p value in FIG. 4 is p<0.01.

[2] = system: elastase derived from human skin fibroblasts (NHDF-Ad); test: elastase activity inhibition test (anti-wrinkle test); format: biochemical; details: 50 nM; 37° C. for 2 hours
Protocol: Therefore, in this example, elastase activity was evaluated by measuring an amount of nitroaniline produced using elastase derived from human skin fibroblasts (NHDF-Ad), and using N-Succinyl-Ala-Ala-Ala-β-nitroanilide as a substrate. Based on the elastase activity, a skin dermis elasticity retention and aging function (an activity inhibition rate) of the test object of rice malt lactic acid bacterium fermentation liquid SW01 (hereinafter, SW01) was examined.
The elastase activity was set to 100% using, as a control, a reaction with only elastase derived from human skin fibroblasts (NHDF-Ad) and N-Succinyl-Ala-Ala-Ala-β-nitroanilide as a substrate. Reaction conditions in this experiment were 37° C. for 2 hours.

| elastase inhibition by standard agent [2] | Structure (SMILES) | activity of β-hexosaminidase (control with sterilized water = 100%) [1] |
| --- | --- | --- |
|  | O=c1c(O)c(-c2ccc(O)c(O)c2)oc2cc(O)cc(O)c12 [quercetin] | about 40% |
| show elastase inhibition | CC(C)C[C@H](NP(=O)(O)O[C@@H]1O[C@@H](C)[C@H](O)[C@@H](O)[C@H]1O)C(=O)N[C@@H](Cc1c[nH]c2ccccc12)C(=O)O [phosphoramidon] |  |
